Here are results for eight molecules from publication PMC6713189, “Dual and selective inhibitors of pteridine reductase 1 (PTR1) and dihydrofolate reductase-thymidylate synthase (DHFR-TS) from Leishmania chagasi” (Journal of Enzyme Inhibition and Medicinal Chemistry, 2019).

Broadly, the IC50 is the midpoint of a concentration-inhibition curve. High values mean weaker potency in that assay, low ones greater potency in that assay. As usually defined, the Ki is a measure of affinity in units of concentration, obtained from inhibition or displacement. Read a high Ki as lower affinity. As usually defined, the inhibition is the change of the read-out against control, counted positive when it falls. Low values mean little suppression, high ones strong suppression. As a reminder, the Km is the substrate concentration at which the rate is half of its maximum.

Test [1] deals with T1, LcPTR1 (Leishmania infantum, UniProt A4I067). Put plainly: LcPTR1 inhibition assay (single concentration and IC50, NADPH consumption at 340 nm). The following applies: for Ki: obtained from Cheng-Prussov equation for competitive inhibitors; for Selectivity Ki LcPTR1/ Ki LcDHFR-TS: ratio of Ki values. Type of test: biochemical. As for the experimental part: (§1) Kinetic measurements were performed according to the protocol described[32] via spectrophotometer (Shimadzu UV-1800) at pH 4.7 (20 mM sodium acetate). NADPH consumption was monitored spectrophotometrically (340 nm) at constant temperature (30 °C). The variation of the absorbance monitored for 60 s was used to calculate the initial rate of the reaction by linear regression.
(§2) Comparison of the enzymatic activities in the absence and presence of the compounds (50 μM), which were dissolved in DMSO (5% v/v final concentration), was employed to calculate the percent inhibition (Equation (1)) (1) % Inhibition=100 − (Vi/Vc)×100 where Vi is the initial velocity in the presence of the inhibitor and Vc is the reaction rate in the presence of DMSO (5% (v/v)).
(§3) The results of this analysis were plotted in double-reciprocal graphs for visual analysis purposes only.

The target in test [2] is T1, LcPTR1. Put plainly: Determination of the inhibition mechanism, LcPTR1. The format is biochemical.
Source text: as §3

Test [3] has as its target T2, LcDHFR-TS (Leishmania infantum, UniProt Q8MQV3). As to the kind of experiment: LcDHFR-TS inhibition assay (single concentration and IC50, NADPH consumption at 340 nm). The format is biochemical. The following applies: for IC50: DHF 5.0 µM, NADPH 5.0 µM, pH 7.0, >50 from single-concentration assay; for Ki: obtained from Cheng-Prussov equation for competitive inhibitors. As for the experimental part:
(§4) Kinetic measurements were carried out using a standard assay, at pH 7.0 (50 mM sodium phosphate). Briefly, NADPH consumption was monitored spectrophotometrically ([…]) (Shimadzu® UV-1800, Columbia MD, USA) at constant temperature (25 °C) and the absorbance variation within the first 30 s was employed to calculate the initial rate of reaction, by linear regression of the raw data.
as §2, §3

The target of test [4] is T1, LcPTR1. The format is biochemical, Leishmania chagasi. Conditions: restated without unit; read-out: Km app for LcPTR1. As for the experimental part:
as §1

Test [5] deals with DHFR-TS. The following applies: read-out: Km app for L. tropica DHFR-TS; cited from earlier work.
In the next test the test system is LdPTR1. Set-up: method as in PMID 21115787. Conditions: double-reciprocal plot, His-tag fused protein; read-out: Km app for LdPTR1; cited from earlier work.
In another test the test system is L. tarantoleae PTR1. Set-up: method as in PMID 10415124. Conditions: read-out: Km app for L. tarantoleae PTR1; cited from earlier work.
The subject of another test is L. major PTR1. The following applies: cited from earlier work.
In test [6] the target is T2, LcDHFR-TS. As to the kind of experiment: LcDHFR-TS apparent Km determination. The format is biochemical, Leishmania chagasi. On the procedure: as §4
The effect of the pH (5.0–8.0) over enzymatic activity was investigated with 0.2 μM of LcDHFR-TS and saturating NADPH and DHF concentrations (100 μM) (50 mM citrate buffer was used for pH 5.0 activity assay. 50 mM sodium phosphate buffer was used for pH range 6.0 to 8.0 activity assay). […] All the measurements were carried out in triplicate and the apparent Km values for the cofactor and substrate were determined under a pseudo first-order kinetics assumption using least-squares non-linear regression method, as available in the GraphPad Prism version 5.0 for Windows (GraphPad® Software, San Diego, CA, USA, www.graphpad.com).

A further test concerns L. tropica PTR1. More on the design: method as in PMID 10415124. The following applies: cited from earlier work.
Test [7] relates to DHFR-TS. The following applies: read-out: Km app for L. major DHFR-TS; cited from earlier work.
Test [8] concerns the target T2, LcDHFR-TS. Put plainly: Determination of the inhibition mechanism, LcDHFR-TS. The format is biochemical.
Source text: as §3

[9] abbreviates: pH 7.0, 25 °C, other substrate saturating.
The mark [10] stands for this setting: pH 7.0, 25 °C, other substrate saturating, read-out: Km app for LcDHFR-TS.
The mark [11] stands for this setting: restated without unit, read-out: Km app for LcDHFR.

Several values for one entry are separate records, joined by “and”; a condition that tells them apart may be missing. Equal entries are not always repeated. Where two headings read alike, the source gives them in different places. A value given as a limit tells only on which side of the number the result lay.

T1 sequence (A4I067 entry or part of it): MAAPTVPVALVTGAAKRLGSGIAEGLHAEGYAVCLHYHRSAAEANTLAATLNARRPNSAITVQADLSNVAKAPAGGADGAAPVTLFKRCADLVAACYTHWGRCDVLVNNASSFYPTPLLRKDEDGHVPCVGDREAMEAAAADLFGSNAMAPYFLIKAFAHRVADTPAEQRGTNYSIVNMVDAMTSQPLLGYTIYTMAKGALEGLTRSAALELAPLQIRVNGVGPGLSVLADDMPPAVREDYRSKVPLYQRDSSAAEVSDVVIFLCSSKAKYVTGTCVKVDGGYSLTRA
T2 sequence (Q8MQV3 entry or part of it): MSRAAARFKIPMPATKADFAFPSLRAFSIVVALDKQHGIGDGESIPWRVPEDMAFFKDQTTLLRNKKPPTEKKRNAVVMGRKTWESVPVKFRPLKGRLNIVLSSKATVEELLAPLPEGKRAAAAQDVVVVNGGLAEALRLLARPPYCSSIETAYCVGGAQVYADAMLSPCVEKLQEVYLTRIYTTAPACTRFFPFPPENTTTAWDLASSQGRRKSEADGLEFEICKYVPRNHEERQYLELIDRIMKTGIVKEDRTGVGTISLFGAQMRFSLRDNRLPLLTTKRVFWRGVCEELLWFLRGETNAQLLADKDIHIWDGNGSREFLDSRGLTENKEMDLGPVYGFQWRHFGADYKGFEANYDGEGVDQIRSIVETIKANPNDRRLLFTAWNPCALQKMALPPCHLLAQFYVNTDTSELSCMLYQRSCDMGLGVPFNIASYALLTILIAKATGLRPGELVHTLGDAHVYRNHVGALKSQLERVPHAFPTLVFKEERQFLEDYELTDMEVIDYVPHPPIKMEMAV

`Nc1nc(N)c2ccccc2n1` [Compound 5]: the IC50 is 0.94 µM at LcPTR1 [1] and greater than 50 µM against LcDHFR-TS [3]. Also, the Ki at LcPTR1 [1] is 0.47 µM; at LcDHFR-TS [3], greater than 8.33 µM. The inhibition at 50 µM against LcPTR1 [1] (pH 4.7) is 98 ± 0.8%; against LcDHFR-TS [3] (pH 7), 20 ± 2.4%. The molecule also registered a selectivity index at LcPTR1 [1] (selective LcPTR1 inhibitor, LcPTR1 over LcDHFR-TS (abstract)) of 20. Moreover, the “mechanism of inhibition with respect to biopterin” value at LcPTR1 [2] is listed as “competitive”. Further, on LcPTR1 [2], the “mechanism of inhibition with respect to the cofactor NADPH” value is given as “uncompetitive”.
For `CC(C)Cc1ccc(C(C)c2nc(N)nc(N)c2-c2ccccc2)cc1` (centres unmarked) [Compound 4], inhibition against LcPTR1 [1] was half-maximal at 66.3 ± 9.01 µM (IC50). The inhibition at 50 µM was 40 ± 1% against LcPTR1 [1] (pH 4.7) and 20 ± 2.4% against LcDHFR-TS [3] (pH 7).
As to `NC(=O)C1=CN([C@@H]2O[C@H](COP(=O)(O)OP(=O)(O)OC[C@H]3O[C@@H](n4cnc5c(N)ncnc54)[C@H](OP(=O)(O)O)[C@@H]3O)[C@@H](O)[C@H]2O)C=CC1` [NADPH], the Km on LcPTR1 [4] is 37.5 µM; in the test on DHFR-TS [5], 2.7 µM; in the test on LdPTR1, 18.5 µM; in the test on L. tarantoleae PTR1 it was 19 µM; in the test with L. major PTR1 it was 6.7 µM; at LcDHFR-TS [6] (setting [10]), 2.3 ± 0.5 µM. The values for the Michaelis-Menten constant (Km) on LcDHFR-TS [6] (setting [11]), with L. tropica PTR1 and in the test with DHFR-TS [7] were 2.3 µM, 19 µM and 0.45 µM, respectively. The “Vmax app for LcDHFR-TS” value on LcDHFR-TS [6] (setting [9]) came to 1.6 ± 0.1 nmol/min/mL.
For `Nc1nc(N)c(Cc2ccccc2)c(CCCc2ccccc2)n1` [Compound 1], at LcPTR1 [1], the midpoint of inhibition, the IC50, lay at 3 µM; the Ki was 1.5 µM; the “Selectivity Ki LcPTR1/ Ki LcDHFR-TS” value is 5.4 and 5.45. This molecule also returned an inhibition at 50 µM against LcPTR1 [1] (pH 4.7) of 90 ± 1%. The “NADPH Vmax app in presence of inhibitor” value on LcDHFR-TS [8] (compound 1 at 2 µM) was found to be 1.0 ± 0.1 nmol/min/mL. Besides, the “NADPH Vmax app in presence of inhibitor” value on LcDHFR-TS [8] (compound 1 at 5 µM) was 0.5 ± 0.05 nmol/min/mL. For the same molecule, the “DHF Vmax app in presence of inhibitor” value at LcDHFR-TS [8] (not affected by increasing concentrations of compound 1) stood at 1.9 ± 0.1 nmol/min/mL. Moreover, the “mechanism of inhibition related to cofactor NADPH” value at LcDHFR-TS [8] (saturating DHF 12.5 µM, varying NADPH) was “noncompetitive”. For the same molecule, on LcDHFR-TS [8] (saturating NADPH 50 µM, varying DHF), the “mechanism of inhibition related to substrate DHF” value is on record as “competitive”. At LcPTR1 [2], the “mechanism of inhibition with respect to biopterin” value is on record as “competitive” and the “mechanism of inhibition with respect to the cofactor NADPH” value is given as “uncompetitive”. On LcDHFR-TS [3], this molecule displayed an IC50 of 1.65 µM and a Ki of 0.28 µM. The same molecule came in with an inhibition at 50 µM against LcDHFR-TS [3] (pH 7) of 100 ± 1.17%.
Turning to `COc1ccccc1CCc1nc(N)nc(N)c1Cc1ccccc1` [Compound 3], at LcPTR1 [1], half-maximal inhibition (IC50) was put at 4.6 µM; the affinity, expressed as Ki, was 2.3 µM; the “Selectivity Ki LcPTR1/ Ki LcDHFR-TS” value is 3.3 and 3.29. Further, the LcPTR1 inhibition result on LcPTR1 [1] (pH 4.7) is “active”. On LcDHFR-TS [3], this molecule showed an IC50 of 4.2 µM and a Ki of 0.7 µM. Besides, on LcDHFR-TS [3] (pH 7), the LcDHFR-TS inhibition result is “active”.
Regarding `Nc1nc(N)c(Cc2ccccc2)c(CC2CCCCC2)n1` [Compound 2], at LcPTR1 [1], the IC50 came to 4.1 µM; the affinity, expressed as Ki, was 2.05 µM; the “Selectivity Ki LcPTR1/ Ki LcDHFR-TS” value came out at 0.68. In addition, the inhibition at 50 µM on LcPTR1 [1] (pH 4.7) was determined as 40 ± 1%. On LcDHFR-TS [3], this molecule gave an IC50 of 18 µM and an inhibitory constant (Ki) of 3 µM. At LcDHFR-TS [3] (pH 7), this molecule returned an inhibition at 50 µM of 20 ± 2.4%.
`Nc1nc(=O)c2c([nH]1)NCC(CNc1ccc(C(=O)N[C@@H](CCC(=O)O)C(=O)O)cc1)=N2` [DHF]: the Km was 1.5 µM in the test with DHFR-TS [5], 1 ± 0.2 µM at LcDHFR-TS [6] (setting [10]), 1 µM at LcDHFR-TS [6] (setting [11]) and 1.6 µM in the test with DHFR-TS [7]. Further, the “Vmax app for LcDHFR-TS” value on LcDHFR-TS [6] (setting [9]) worked out at 2.0 ± 0.11 nmol/min/mL.
For biopterin, the Michaelis-Menten constant (Km) is 5.8 µM in the test with LdPTR1, 3.5 µM with L. tarantoleae PTR1, 4.6 µM in the test with L. major PTR1 and 3.5 µM in the test with L. tropica PTR1.
